Experimental data taken from paper PMC4728427, “Mechanism of allosteric activation of TMEM16A/ANO1 channels by a commonly used chloride channel blocker” (British Journal of Pharmacology, 2016).
Like-named read-outs stand apart in the source and are kept apart here.

Biological target: T1, Mouse TMEM16A (Mus musculus, UniProt Q8BHY3)
T1 construct: expressed in transfected cells; host or cells: HEK-293T
T1 sequence (Q8BHY3 1-960): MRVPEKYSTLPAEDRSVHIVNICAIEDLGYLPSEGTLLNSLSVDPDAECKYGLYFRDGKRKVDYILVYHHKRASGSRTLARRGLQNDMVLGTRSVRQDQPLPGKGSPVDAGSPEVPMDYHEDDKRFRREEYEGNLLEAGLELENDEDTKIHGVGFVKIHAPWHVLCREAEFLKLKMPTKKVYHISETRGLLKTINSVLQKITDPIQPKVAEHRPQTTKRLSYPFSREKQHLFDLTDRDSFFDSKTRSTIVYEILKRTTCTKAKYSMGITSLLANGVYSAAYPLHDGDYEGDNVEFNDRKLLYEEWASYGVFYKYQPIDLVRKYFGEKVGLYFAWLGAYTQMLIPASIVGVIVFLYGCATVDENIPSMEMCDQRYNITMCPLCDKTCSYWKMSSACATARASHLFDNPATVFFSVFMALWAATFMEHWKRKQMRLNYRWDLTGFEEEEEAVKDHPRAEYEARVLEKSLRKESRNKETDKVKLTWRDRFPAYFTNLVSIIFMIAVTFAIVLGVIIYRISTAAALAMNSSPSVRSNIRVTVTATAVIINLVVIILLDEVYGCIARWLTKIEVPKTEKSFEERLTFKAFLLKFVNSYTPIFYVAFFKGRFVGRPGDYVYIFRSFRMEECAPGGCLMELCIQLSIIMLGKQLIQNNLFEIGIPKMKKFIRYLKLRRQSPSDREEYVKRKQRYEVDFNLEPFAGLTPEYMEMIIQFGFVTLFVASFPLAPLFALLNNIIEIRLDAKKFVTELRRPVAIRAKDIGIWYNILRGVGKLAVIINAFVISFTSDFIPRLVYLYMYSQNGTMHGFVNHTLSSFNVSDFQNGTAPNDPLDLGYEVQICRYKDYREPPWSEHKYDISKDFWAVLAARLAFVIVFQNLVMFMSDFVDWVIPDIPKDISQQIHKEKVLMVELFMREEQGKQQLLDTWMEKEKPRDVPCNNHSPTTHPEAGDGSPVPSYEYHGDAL
Experiment: Whole-cell [A9C]ext-inhibition relationship (Hill and Woodhull fits), 12.5 μM [Ca2+]i
Type: cell-based
Protocol: Mouse TMEM16A (GenBank NM_178642) subcloned into pcDNA3.1 vector was used in this study (Alexander et al., 2013). HEK‐293T cells were cultured as previously described (Smith et al., 2013) and transfected with 0.5–1 μg of TMEM16A and 0.1 μg of CD8 constructs using Fugene HD (Promega, Madison, WI, USA) according to the manufacturer's instructions. Cells were used ~12–36 h after transfection. Transfected cells were visualized using the anti‐CD8 antibody‐coated beads method (Jurman et al., 1994).
The intracellular solution contained (mM) 130 CsCl, 10 EGTA, 1 MgCl2, 10 HEPES and 8 CaCl2 to obtain ~300 nM of [Ca^2+]i; pH was adjusted to 7.3 with NaOH. The intracellular solutions containing ~600 nM, ~1000 nM and ~12.5 μM [Ca^2+]i were obtained by replacing EGTA with equimolar H‐EDTA and by adding 2.1, 3.1 and 7.8 mM CaCl2 respectively. The extracellular solution contained (mM) 150 NaCl, 1 CaCl2, 1 MgCl2, 10 glucose, 10 D‐mannitol and 10 HEPES; pH was adjusted to 7.4 with NaOH. […] A9C was dissolved in DMSO (stock concentration, 300 mM); thus, the final concentration of DMSO was ≤1%. Aliquots of the stock solution were kept at −20° and used within 5 days.
The relationship between [A9C] and TMEM16A current inhibition was obtained by measuring the currents at the end of 250 ms V m steps from +20 to +120 mV in 20 mV increments elicited every 2 s from a holding V m of −70 mV. TMEM16A currents measured in the presence of A9C (I b) were normalized to currents measured in the absence of A9C (I 0) and plotted against [A9C]. The concentration–response curves obtained were fit with the Hill equation of the form: (1) Ib/Io=1/1+A9C/Ki^γ,
where K i is the apparent A9C dissociation constant from the inhibitory site and γ is the coefficient of cooperativity (Hill coefficient).
The relationships between the K i or K d and V m were fitted with the Woodhull equation (Woodhull, 1973): (3) Kx=Kx0exp−δxzFVm/RT.
The subscript ‘x’ stands for either ‘i’ or ‘d’. Thus, K i(0) or K d(0) are the apparent A9C dissociation constants from the inhibitory or activating site at 0 mV, z is the A9C electric valence (−1), δ i or δ d is the fraction of the V m sensed by A9C when bound to the inhibitory or activating site, F is Faraday's constant, R is the universal gas constant and T is the absolute temperature.
To investigate the precise mechanism by which extracellular A9C inhibits TMEM16A channels, macroscopic whole‐cell currents were recorded in the presence of 12.5 μM [Ca^2+]i and in response to 250 ms steps to various V m test pulse from a holding V m of −70 mV. The negative holding V m was used to prevent channel block before the test pulse was elicited. […] The time‐course of this decrease was described by a single‐exponential function characterized by a time constant τ B. The extent of the decrease in current was measured for various [A9C]ext and various V m test pulse and then plotted relative to the current measured in the absence of A9C (I 0) (Figure 3B). The γ values were close to 1 at each V m. In contrast, K i decreased as the V m was increased (Figure 3C). […] Thus, A9C appeared to block TMEM16A channels according to a Woodhull mechanism, consistent with a single A9C molecule blocking the channel pore.

## O=C(O)c1c2ccccc2cc2ccccc12 [A9C, Anthracene‐9‐carboxylic acid]
12.5 μM [Ca2+]i (rounded in Discussion), read-out: K i(0)
  Ki: ~300 µM
12.5 μM [Ca2+]i, extracellular A9C
  δ i (fraction of Vm sensed at inhibitory site, Woodhull fit): 0.62 ± 0.03
12.5 μM [Ca2+]i, extracellular A9C, read-out: K i(0) (apparent dissociation constant from inhibitory site at 0 mV)
  Ki: 322 ± 13 µM
+80 mV, mouse TMEM16A (rounded in Discussion), read-out: K i
  Ki: ~50 µM
V m 20, 12.5 μM [Ca2+]i
  γ (slope factor, inhibition): 0.86 ± 0.14 (n = 8)
V m 20, 12.5 μM [Ca2+]i, [A9C]ext, unit inferred, read-out: K i (Hill fit of inhibition)
  Ki: 198 ± 47 µM
V m 40, 12.5 μM [Ca2+]i
  γ (slope factor, inhibition): 0.85 ± 0.15 (n = 8)
V m 40, 12.5 μM [Ca2+]i, [A9C]ext, unit inferred, read-out: K i (Hill fit of inhibition)
  Ki: 113 ± 26 µM
V m 60, 12.5 μM [Ca2+]i
  γ (slope factor, inhibition): 0.8 ± 0.2 (n = 8)
V m 60, 12.5 μM [Ca2+]i, [A9C]ext, unit inferred, read-out: K i (Hill fit of inhibition)
  Ki: 68 ± 20 µM
V m 80, 12.5 μM [Ca2+]i
  γ (slope factor, inhibition): 0.8 ± 0.17 (n = 8)
V m 80, 12.5 μM [Ca2+]i, [A9C]ext, unit inferred, read-out: K i (Hill fit of inhibition)
  Ki: 44 ± 10 µM
V m 100, 12.5 μM [Ca2+]i
  γ (slope factor, inhibition): 0.8 ± 0.23 (n = 8)
V m 100, 12.5 μM [Ca2+]i, [A9C]ext, unit inferred, read-out: K i (Hill fit of inhibition)
  Ki: 31 ± 12 µM
V m 120, 12.5 μM [Ca2+]i
  γ (slope factor, inhibition): 0.71 ± 0.16 (n = 8)
V m 120, 12.5 μM [Ca2+]i, [A9C]ext, unit inferred, read-out: K i (Hill fit of inhibition)
  Ki: 20 ± 8 µM
Woodhull analysis, rounded
  electric distance of inhibiting binding site (δ i): ~ 0.6
From δ i
  penetration into the pore length (voltage field) to reach inhibitory site: approximately 60%
Rounded in Discussion
  γ from Hill fit of [A9C]ext-inhibition relationships: ≈ 1
